Assay results from ChEMBL document CHEMBL5032507, “Selective Pseudo-irreversible Butyrylcholinesterase Inhibitors Transferring Antioxidant Moieties to the Enzyme Show Pronounced Neuroprotective Efficacy In Vitro and In Vivo in an Alzheimer's Disease Mouse Model” (J Med Chem, 2021).
Calls of active or inactive are those of the source. The rule behind the calls is not given here.

Legend:
Cholinesterase [1] = target: T1, Cholinesterase (Homo sapiens, UniProt P06276); experiment: Inhibition of human BChE using butyrylthiocholine iodide as substrate incubated for 20 mins followed by substrate addition by Ellman's method
[2] = target: Acetylcholinesterase (Homo sapiens) (UniProt P22303); experiment: Inhibition of human AChE using acetylthiocholine iodide as substrate at 10 uM incubated for 20 mins followed by substrate addition by Ellman's method relative to control
[3] = Metal chelating activity assessed as compound-Cu2+ complex formation at ratio of 10:1 incubated for 2 mins followed by pyrocatechol violet addition and further incubated for 10 mins in dark by absorbance based assay; conditions: time 12.0 min
[4] = Neurotoxicity in mouse HT-22 cells assessed as reduction in cell viability at 25 uM incubated for 24 hrs by MTT assay; format: cell-based; conditions: ht-22, 24 h
HT-22 [5] = experiment: Neuroprotective activity against glutamate induced-oxidative stress in mouse HT-22 cells assessed as cell viability at 10 uM incubated for 24 hrs by MTT assay; format: functional, cell-based
N9 [6] = experiment: Immunomodulatory activity in mouse N9 microglial cells assessed as reduction in LPS-induced IL-1beta release at 0.1 to 5 uM incubated for 24 hrs by Western blot analysis; format: functional, cell-based; conditions: dose 0.1-5 µM
N9 [7] = experiment: Immunomodulatory activity in mouse N9 microglial cells assessed as increase in LPS-induced TREM2 expression at 2.5 to 5 uM incubated for 24 hrs by Western blot analysis; format: functional, cell-based; conditions: dose 2.5-5 µM
[8] = Toxicity in Swiss mouse assessed as change in weight gain at 0.1 to 3 mg/kg, ip administered for 7 days; format: organism-based; conditions: in vivo, 168 h, dose 0.1-3 mg/kg, time 7 day
[9] = Toxicity in Swiss mouse assessed as change in normal behaviour at 0.1 to 3 mg/kg, ip administered for 7 days; format: organism-based; conditions: in vivo, 168 h, dose 0.1-3 mg/kg, time 7 day
Mus musculus [10] = experiment: Anti-alzheimer activity against amyloid beta 25-35 induced learning impairments in Swiss mouse assessed as increase in spontaneous alteration performance by measuring total number of arm entries at 1 mg/kg, ip administered once daily for 7 days and measured on day 8 by Y-maze test; format: functional, organism-based; conditions: time 7.0 day
Mus musculus [11] = experiment: Anti-alzheimer activity against amyloid beta 25-35 induced learning impairments in Swiss mouse assessed as latency to enter dark compartment at 0.3 mg/kg, ip administered once daily for 7 days and measured on day 8 by passive avoidance test; format: functional, organism-based; conditions: time 7.0 day
[12] = Metal chelating activity assessed as Fe2+ -ferrozoine complex formation at ratio of 10:1 incubated for 2 mins followed by ferrozine addition and further incubated for 10 mins by absorbance based assay; conditions: time 12.0 min
N9 [13] = experiment: Immunomodulatory activity in mouse N9 microglial cells assessed as reduction in LPS-induced iNOS expression at 0.1 to 5 uM incubated for 24 hrs by Western blot analysis; format: functional, cell-based; conditions: dose 0.1-5 µM
N9 [14] = experiment: Immunomodulatory activity in mouse N9 microglial cells assessed as reduction in LPS-induced nitrite accumulation at 0.1 to 5 uM incubated for 24 hrs by Griess reagent based colorimetry assay; format: functional, cell-based; conditions: dose 0.1-5 µM
Cholinesterase [15] = target: T1, Cholinesterase
Description: Binding affinity to human serum BChE assessed as half life

HT-22 [16] = experiment: Neuroprotective activity against glutamate induced-oxidative stress in mouse HT-22 cells assessed as cell viability at 5 uM incubated for 24 hrs by MTT assay; format: functional, cell-based
N9 [17] = experiment: Immunomodulatory activity in mouse N9 microglial cells assessed as reduction in LPS-induced IL-1beta release at 0.5 to 5 uM incubated for 24 hrs by Western blot analysis; format: functional, cell-based; conditions: dose 0.5-5 µM
Mus musculus [18] = experiment: Anti-alzheimer activity against amyloid beta 25-35 induced learning impairments in Swiss mouse assessed as increase in spontaneous alteration performance by measuring total number of arm entries at 0.3 to 1 mg/kg, ip administered once daily for 7 days and measured on day 8 by Y-maze test; format: functional, organism-based; conditions: dose 0.3-1 mg/kg, time 7.0 day
Mus musculus [19] = experiment: Anti-alzheimer activity against amyloid beta 25-35 induced learning impairments in Swiss mouse assessed as latency to enter dark compartment at 0.1 mg/kg, ip administered once daily for 7 days and measured on day 8 by passive avoidance test; format: functional, organism-based; conditions: time 7.0 day
Mus musculus [20] = experiment: Anti-alzheimer activity against amyloid beta 25-35 induced learning impairments in wild type 129 SV mouse assessed as increase in spontaneous alternation performance by measuring total number of arm entries at 0.3 mg/kg, ip administered once daily for 7 days and measured on day 8 by Y-maze test; format: functional, organism-based; conditions: time 7.0 day
Mus musculus [21] = experiment: Anti-alzheimer activity against amyloid beta 25-35 induced learning impairments in wild type 129 SV mouse assessed as increase in latency to enter dark compartment at 0.3 mg/kg, ip administered once daily for 7 days and measured on day 9 by passive avoidance test; format: functional, organism-based; conditions: time 7.0 day
Mus musculus [22] = experiment: Anti-alzheimer activity against amyloid beta 25-35 induced learning impairments in BChE KO mouse assessed as memory deficit in alternation performance by measuring total number of arm entries at 0.3 mg/kg, ip qd administered for 7 days and measured on day 8 by Y-maze test; format: functional, organism-based; conditions: time 7.0 day
Mus musculus [23] = experiment: Anti-alzheimer activity against amyloid beta 25-35 induced learning impairments in BChE KO mouse assessed as increase in latency to enter dark compartment at 0.3 mg/kg, ip administered once daily for 7 days and measured on day 9 by passive avoidance test; format: functional, organism-based; conditions: time 7.0 day
HT-22 [24] = experiment: Neuroprotective activity against glutamate induced-oxidative stress in mouse HT-22 cells assessed as cell viability at 1 to 25 uM incubated for 24 hrs by MTT assay; format: functional, cell-based; conditions: dose 1-25 µM
N9 [25] = experiment: Immunomodulatory activity in mouse N9 microglial cells assessed as reduction in LPS-induced nitrite accumulation at 2.5 to 5 uM incubated for 24 hrs by Griess reagent based colorimetry assay; format: functional, cell-based; conditions: dose 2.5-5 µM
N9 [26] = experiment: Immunomodulatory activity in mouse N9 microglial cells assessed as reduction in LPS-induced IL-1beta release at 2.5 to 5 uM incubated for 24 hrs by Western blot analysis; format: functional, cell-based; conditions: dose 2.5-5 µM
N9 [27] = experiment: Immunomodulatory activity in mouse N9 microglial cells assessed as reduction in LPS-induced iNOS expression at 2.5 to 5 uM incubated for 24 hrs by Western blot analysis; format: functional, cell-based; conditions: dose 2.5-5 µM

T1 sequence (P06276 whole entry): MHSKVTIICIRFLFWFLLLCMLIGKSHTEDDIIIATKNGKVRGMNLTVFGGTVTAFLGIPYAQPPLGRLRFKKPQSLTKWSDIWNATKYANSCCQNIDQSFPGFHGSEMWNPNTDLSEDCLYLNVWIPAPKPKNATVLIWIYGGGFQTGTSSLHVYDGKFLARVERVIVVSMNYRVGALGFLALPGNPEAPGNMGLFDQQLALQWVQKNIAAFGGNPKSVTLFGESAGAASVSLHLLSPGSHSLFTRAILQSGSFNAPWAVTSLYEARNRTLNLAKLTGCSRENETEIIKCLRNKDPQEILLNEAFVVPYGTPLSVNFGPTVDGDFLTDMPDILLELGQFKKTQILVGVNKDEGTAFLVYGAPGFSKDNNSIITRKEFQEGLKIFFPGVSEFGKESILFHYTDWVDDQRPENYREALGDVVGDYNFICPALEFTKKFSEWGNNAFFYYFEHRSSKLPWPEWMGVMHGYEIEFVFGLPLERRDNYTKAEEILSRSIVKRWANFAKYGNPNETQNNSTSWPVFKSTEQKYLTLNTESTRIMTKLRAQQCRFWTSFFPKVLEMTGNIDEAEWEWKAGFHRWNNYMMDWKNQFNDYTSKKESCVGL
Chain of Acetylcholinesterase (Homo sapiens) (P22303 whole entry): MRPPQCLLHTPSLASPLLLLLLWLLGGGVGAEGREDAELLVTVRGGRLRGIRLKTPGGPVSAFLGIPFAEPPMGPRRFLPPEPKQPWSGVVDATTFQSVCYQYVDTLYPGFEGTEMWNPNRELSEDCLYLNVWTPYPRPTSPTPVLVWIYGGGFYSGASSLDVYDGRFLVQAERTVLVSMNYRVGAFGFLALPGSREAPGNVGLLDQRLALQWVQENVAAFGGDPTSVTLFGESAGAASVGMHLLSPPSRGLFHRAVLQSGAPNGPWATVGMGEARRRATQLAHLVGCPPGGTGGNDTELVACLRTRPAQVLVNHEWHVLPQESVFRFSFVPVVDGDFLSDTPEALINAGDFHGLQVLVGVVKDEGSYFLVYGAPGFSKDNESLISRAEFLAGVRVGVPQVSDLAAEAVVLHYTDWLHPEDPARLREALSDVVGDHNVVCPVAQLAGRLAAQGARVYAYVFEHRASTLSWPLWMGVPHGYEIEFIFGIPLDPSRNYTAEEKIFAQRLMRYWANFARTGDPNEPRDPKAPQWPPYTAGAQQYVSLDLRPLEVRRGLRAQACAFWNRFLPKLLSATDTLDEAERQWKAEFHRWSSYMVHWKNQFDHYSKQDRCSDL

## COc1cc(/C=C/C(=O)NCCCCNC(=O)Oc2ccc3c(c2)CN2CCc4ccccc4C2N3C)ccc1O (stereo not given)
Cholinesterase [1]; read-out: IC50
  IC50: 155 nM
Cholinesterase [1]; read-out: pIC50 (converted)
  IC50: 115 nM
[2]
  inhibition: 7.7%
[3]
  Activity: inactive
[4]
  Activity: Non-Toxic
HT-22 [5]
  Activity: Active
N9 [6]
  Activity: Active
N9 [7]
  Activity: Active
[8]
  Activity: Non-Toxic
[9]
  Activity: Non-Toxic
Mus musculus [10]
  Activity: Active
Mus musculus [11]
  Activity: Active
[12]
  Activity: inactive
N9 [13]
  Activity: Active
N9 [14]
  Activity: Active
Cholinesterase [15]
  T1/2: 2.4 h

## Cc1c(C)c2c(c(C)c1O)CCC(C)(C(=O)NCCCCCCNC(=O)Oc1ccc3c(c1)CN1CCc4ccccc4C1N3C)O2 (stereo not given)
Cholinesterase [1]; read-out: IC50
  IC50: 255 nM
Cholinesterase [1]; read-out: pIC50 (converted)
  IC50: 9330 nM
[2]
  inhibition: 24.1%

## CN1c2ccc(OC(=O)NCCCCNC(=O)/C=C/c3ccccc3)cc2CN2CCc3ccccc3C21 (stereo not given)
Cholinesterase [1]; read-out: IC50
  IC50: 221 nM
[2]
  inhibition: 6.1%

## COc1ccc2[nH]cc(CCNC(=O)CCCCCCNC(=O)Oc3ccc4c(c3)CN3CCc5ccccc5C3N4C)c2c1 (stereo not given)
Cholinesterase [1]; read-out: IC50
  IC50: 102 nM
Cholinesterase [1]; read-out: pIC50 (converted)
  IC50: 204 nM
[2]
  inhibition: 6.5%
[3]
  Activity: inactive
[4]
  Activity: Non-Toxic
HT-22 [16]
  Activity: Active
N9 [17]
  Activity: Active
N9 [7]
  Activity: Active
[8]
  Activity: Non-Toxic
[9]
  Activity: Non-Toxic
Mus musculus [18]
  Activity: Active
Mus musculus [19]
  Activity: Active
Mus musculus [20]
  Activity: Active
Mus musculus [21]
  Activity: Active
Mus musculus [22]
  Activity: inactive
Mus musculus [23]
  Activity: inactive
[12]
  Activity: inactive
N9 [13]
  Activity: Active
N9 [14]
  Activity: Active
Cholinesterase [15]
  T1/2: 3 h

## CN1c2ccc(OC(=O)NCCCCCCNC(=O)/C=C/c3ccccc3)cc2CN2CCc3ccccc3C21 (stereo not given)
Cholinesterase [1]; read-out: IC50
  IC50: 442 nM
[2]
  inhibition: 37.5%

## COc1ccc2[nH]cc(CCNC(=O)CCNC(=O)Oc3ccc4c(c3)CN3CCc5ccccc5C3N4C)c2c1 (stereo not given)
Cholinesterase [1]; read-out: IC50
  IC50: 482 nM
[2]
  inhibition: 2.3%

## COc1cc(/C=C/C(=O)NCCCCCCNC(=O)Oc2ccc3c(c2)CN2CCc4ccccc4C2N3C)ccc1O (stereo not given)
Cholinesterase [1]; read-out: IC50
  IC50: 166 nM
[2]
  inhibition: 20%

## Cc1c(C)c2c(c(C)c1O)CCC(C)(C(=O)NCCCCNC(=O)Oc1ccc3c(c1)CN1CCc4ccccc4C1N3C)O2 (stereo not given)
Cholinesterase [1]; read-out: IC50
  IC50: 791 nM
[2]
  inhibition: 15.2%

## COc1cc(/C=C/C(=O)O)ccc1O [FERULATE]
[3]
  Activity: inactive
[4]
  Activity: Non-Toxic
HT-22 [24]
  Activity: inactive
N9 [25]
  Activity: inactive
N9 [26]
  Activity: inactive
N9 [27]
  Activity: inactive
[12]
  Activity: inactive

## COc1ccc2[nH]cc(CCNC(C)=O)c2c1 [MELATONIN]
[3]
  Activity: inactive
[4]
  Activity: Non-Toxic
HT-22 [24]
  Activity: inactive
N9 [25]
  Activity: inactive
N9 [26]
  Activity: inactive
N9 [27]
  Activity: inactive
[12]
  Activity: inactive

## COc1ccc2[nH]cc(CCNC(=O)CCCCNC(=O)Oc3ccc4c(c3)CN3CCc5ccccc5C3N4C)c2c1 (stereo not given)
Cholinesterase [1]; read-out: IC50
  IC50: 127 nM
[2]
  inhibition: 15%
